Reference: US11472815B2, “1,4-diphenyl-1H-imidazole and 2,4-diphenylthiazole derivatives and preparation method therefor and use thereof” (SOUTHERN MEDICAL UNIVERSITY, priority 2018, dated 2022)

Biological target: TLR1/2 (Homo sapiens (Human), UniProt O60603+Q15399)
Experiment: Detection of TLR1/2 activation activity (SEAP signal) using TLR1/2 HEK BLUE cells
Type: cell-based
Conditions: for EC50 / TLR1/2 activation activity EC50: HEK BLUE TLR1/2 cells, 24 hours, SEAP read at 620 nm, highest concentration 100 μM, [‡] highest SEAP signal less than 50% of the activation value of compound 22
Description: TLR1/2 activation activity was detected using TLR1/2 HEK BLUE cells. TLR1/2 HEK BLUE cells were cultured in DMEM medium containing 10% fetal bovine serum, 1% penicillin and streptomycin, and incubated in a 37° C. cell incubator containing 5% CO2.
HEK BLUE TLR1/2 cells were spread in a 384-well plate at 20,000 cells/well, cultured at 37° C., 5% CO2 for 24 hours, 25 μL per well. When the cells grew well, 100 μM compound and doubling-diluted for 11 concentration gradients. After the cells were kept for 24 hours in the CO2 incubator, 40 μL of indigo blue solution was added to each well of the plate in the dark, and reading was conducted 4 times in an interval of 15 minutes at 620 nm to detect the signal intensity of SEAP in the cell supernatant.

Chain of TLR1/2 (Q15399 25-786): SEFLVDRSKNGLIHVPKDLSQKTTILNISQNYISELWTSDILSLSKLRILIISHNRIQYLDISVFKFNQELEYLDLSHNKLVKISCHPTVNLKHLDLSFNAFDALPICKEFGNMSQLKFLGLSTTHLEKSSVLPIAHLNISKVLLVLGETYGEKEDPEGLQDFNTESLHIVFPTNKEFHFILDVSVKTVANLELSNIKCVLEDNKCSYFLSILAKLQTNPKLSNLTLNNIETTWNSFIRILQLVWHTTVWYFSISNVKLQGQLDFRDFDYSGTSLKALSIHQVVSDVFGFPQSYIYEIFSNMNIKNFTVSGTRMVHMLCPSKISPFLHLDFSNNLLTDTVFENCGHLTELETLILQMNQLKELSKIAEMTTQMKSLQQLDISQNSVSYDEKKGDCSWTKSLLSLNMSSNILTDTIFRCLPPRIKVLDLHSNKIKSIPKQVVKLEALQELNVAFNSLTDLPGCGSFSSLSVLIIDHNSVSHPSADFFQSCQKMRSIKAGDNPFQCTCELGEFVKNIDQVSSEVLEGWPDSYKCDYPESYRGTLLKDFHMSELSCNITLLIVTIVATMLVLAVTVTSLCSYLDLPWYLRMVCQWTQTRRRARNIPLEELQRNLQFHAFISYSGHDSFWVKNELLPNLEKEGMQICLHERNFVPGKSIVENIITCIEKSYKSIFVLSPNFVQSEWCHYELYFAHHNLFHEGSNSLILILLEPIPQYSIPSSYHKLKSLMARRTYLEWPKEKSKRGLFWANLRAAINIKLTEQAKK
Chain of TLR1/2 (O60603 19-784): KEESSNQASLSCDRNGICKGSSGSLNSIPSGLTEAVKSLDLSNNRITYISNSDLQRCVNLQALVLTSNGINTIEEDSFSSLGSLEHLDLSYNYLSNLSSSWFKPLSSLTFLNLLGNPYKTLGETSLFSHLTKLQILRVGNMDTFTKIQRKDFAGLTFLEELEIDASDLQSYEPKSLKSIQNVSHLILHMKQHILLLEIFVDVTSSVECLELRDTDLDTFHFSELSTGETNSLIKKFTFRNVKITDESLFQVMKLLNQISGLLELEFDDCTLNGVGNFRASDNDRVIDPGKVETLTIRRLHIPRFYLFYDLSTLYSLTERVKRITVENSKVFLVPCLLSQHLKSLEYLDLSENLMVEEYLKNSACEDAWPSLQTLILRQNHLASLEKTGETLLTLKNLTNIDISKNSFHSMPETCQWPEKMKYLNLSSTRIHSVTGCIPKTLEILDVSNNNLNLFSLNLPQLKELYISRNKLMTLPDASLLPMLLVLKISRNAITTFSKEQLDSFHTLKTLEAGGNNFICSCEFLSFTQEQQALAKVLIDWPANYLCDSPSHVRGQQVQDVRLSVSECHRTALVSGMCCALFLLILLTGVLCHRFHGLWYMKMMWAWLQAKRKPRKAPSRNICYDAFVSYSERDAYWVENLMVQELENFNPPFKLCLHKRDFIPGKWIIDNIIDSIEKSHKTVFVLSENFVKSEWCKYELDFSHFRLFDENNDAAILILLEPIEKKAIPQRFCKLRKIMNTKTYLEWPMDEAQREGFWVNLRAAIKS

Compound `CNc1ccc([N+](=O)[O-])cc1-n1cnc(-c2ccc(C(F)(F)F)cc2OCCNC(=O)CCCC[C@@H]2SC[C@@H]3NC(=O)N[C@@H]32)c1` [Compound 44, N-(2-(2-(1-(2-(methylamino)-5-nitrophenyl)-1H-imidazol-4-yl)-5-(trifluoromethyl)phenoxyl)ethyl)-5-((3AS,4S,6AR)-2-oxohexahydro-1H-thieno[3,4-d]imidazol-4-yl)pentanamide] has an EC50 of 764 ± 10.2 nM.

With `CNc1ccc([N+](=O)[O-])cc1-n1cnc(-c2ccc(C(F)(F)F)cc2OCCCBr)c1` [Compound 32, 2-(4-(2-(3-bromopropoxy)-4-(trifluoromethyl)phenyl)-1H-imidazol-1-yl)-N-methyl-4-nitroaniline] the EC50 was over 1000 nM.

`CNc1ccc([N+](=O)[O-])cc1-n1cnc(-c2ccc(C(F)(F)F)cc2O)c1` [Compound 22, 2-(1-(2-(methylamino)-5-nitrophenyl)-1H-imidazol-4-yl)-5-(trifluoromethyl)phenol] was tested, and the “TLR1/2 activation (in words)” value was “activates TLR1/2 activity in a concentration-dependent manner”, the EC50 was 4.88 ± 0.79 nM and the “signal intensity of TLR1/2 alkaline phosphatase (SEAP)” value (even at a low concentration (15 nM)) was “significantly activate”.

`CNc1ccc([N+](=O)[O-])cc1-n1cnc(-c2ccc(C(F)(F)F)cc2OCCOCCOCCI)c1` [Compound 41, 2-(4-(2-(2-(2-(2-iodoethoxy)ethoxy)ethoxy)-4-(trifluoromethyl)phenyl)-1H-imidazole-1-yl)-N-methyl-4-nitroaniline] showed an EC50 of over 1000 nM.

With `CCOc1cc(C(F)(F)F)ccc1-c1cn(-c2cc([N+](=O)[O-])ccc2NC)cn1` [Compound 29, 2-(4-(2-ethoxy-4-(trifluoromethyl)phenyl)-1H-imidazol-1-yl)-N-methyl-4-nitroaniline] the EC50 was over 1000 nM.

For `FC(F)(F)c1ccc(-c2csc(-c3cccc(C(F)(F)F)c3)n2)cc1` [Compound 4, 2-(3-(trifluoromethyl)phenyl)-4-(4-(trifluoromethyl)phenyl)thiazole], the EC50 was over 1000 nM.

Work on `CNc1ccc(S(C)(=O)=O)cc1-n1cnc(-c2ccc(C(F)(F)F)cc2O)c1` [Compound 23, 2-(1-(2-(methylamino)-5-(methylsulfonyl)phenyl)-1H-imidazol-4-yl)-5-(trifluoromethyl)phenol] yielded an EC50 of 5.14 ± 0.07 nM.

`CNC(=O)c1ccc(NC)c(-n2cnc(-c3ccc(C(F)(F)F)cc3O)c2)c1` [Compound 25, 3-(4-(2-hydroxy-4-(trifluoromethyl)phenyl)-1H-imidazol-1-yl)-N-methyl-4-(methylamino)benzamide] was tested, and the EC50 was 45.6 ± 3.15 nM.

Work on `FC(F)(F)c1ccc(-c2csc(-c3ccccc3)n2)cc1` [Compound 3, 2-phenyl-4-(4-(trifluoromethyl)phenyl)thiazole] yielded an EC50 of over 1000 nM.

Work on `CNc1ccc([N+](=O)[O-])cc1-n1cnc(-c2ccc(C(F)(F)F)cc2OC(=O)c2ccccc2)c1` [Compound 38, 2-(1-(2-(methylamino)-5-nitrophenyl)-1H-imidazol-4-yl)-5-(trifluoromethyl)phenyl benzoate] yielded an EC50 of 16.9 ± 2.79 nM.

With `FC(F)(F)c1ccc(-c2csc(-c3cc(C(F)(F)F)cc(C(F)(F)F)c3)n2)cc1` [Compound 7, 2-(3,5-bis(trifluoromethyl)phenyl)-4-(4-(trifluoromethyl)phenyl)thiazole] the “TLR1/2 activation activity EC50” value was “NA[†]”.

`Oc1cc(C(F)(F)F)ccc1-c1csc(-c2ccccc2)n1` [Compound 13, 2-(2-phenylthiazol-4-yl)-5-(trifluoromethyl)phenol] was tested, and the “TLR1/2 activation activity EC50” value was “NA[†]”.

Compound `CCCCCCCCCCCC(=O)Oc1cc(C(F)(F)F)ccc1-c1cn(-c2cc([N+](=O)[O-])ccc2NC)cn1` [Compound 37, 2-(1-(2-(methylamino)-5-nitrophenyl)-1H-imidazol-4-yl)-5-(trifluoromethyl)phenyl dodecanoate] has an EC50 of 113 ± 12.7 nM.

`CNc1ccc([N+](=O)[O-])cc1-n1cnc(-c2ccc(C(F)(F)F)cc2OCCBr)c1` [Compound 31, 2-(4-(2-(2-bromoethoxy)-4-(trifluoromethyl)phenyl)-1H-imidazol-1-yl)-N-methyl-4-nitroaniline] gave an EC50 of over 1000 nM.

`CNc1c(Cl)cc([N+](=O)[O-])cc1-n1cnc(-c2ccc(C(F)(F)F)cc2O)c1` [Compound 26, 2-(1-(3-chloro-2-(methylamino)-5-nitrophenyl)-1H-imidazol-4-yl)-5-(trifluoromethyl)phenol] showed an EC50 of 192 ± 17.2 nM.

With `Oc1cc(C(F)(F)F)ccc1-c1csc(-c2cc(C(F)(F)F)cc(C(F)(F)F)c2)n1` [Compound 17, 2-(2-(3,5-bis(trifluoromethyl)phenyl)thiazol-4-yl)-5-(trifluoromethyl)phenol] the “TLR1/2 activation activity EC50” value was “NA[†]”.

`CNc1ccc([N+](=O)[O-])cc1-n1cnc(-c2ccc(C(F)(F)F)cc2OC(=O)/C=C/c2ccccc2)c1` [Compound 39, (1-(2-(methylamino)-5-nitrophenyl)-1H-imidazol-4-yl)-5-(trifluoromethyl)phenyl cinnamate] showed an EC50 of 12 ± 2.67 nM.

With `CNc1ccc([N+](=O)[O-])cc1-n1cnc(-c2ccc(C(F)(F)F)cc2OCCOCCO)c1` [Compound 34, 2-(2-(2-(1-(2-(methylamino)-5-nitrophenyl)-1H-imidazol-4-yl)-5-(trifluoromethyl)phenoxy)ethoxy)ethanol] the EC50 was over 1000 nM.

Compound `CNc1ccc(C(=O)OC)cc1-n1cnc(-c2ccc(C(F)(F)F)cc2O)c1` [Compound 24, Methyl 3-(4-(2-hydroxy-4-(trifluoromethyl)phenyl)-1H-imidazol-1-yl)-4-(methylamino)benzoate] has an EC50 of 432.86 ± 0.05 nM.

In the case of `CCCCCCCC(=O)Oc1cc(C(F)(F)F)ccc1-c1cn(-c2cc([N+](=O)[O-])ccc2NC)cn1` [Compound 36, 2-(1-(2-(methylamino)-5-nitrophenyl)-1H-imidazol-4-yl)-5-(trifluoromethyl)phenyl octanoate], the EC50 is reported as 56.3 ± 7.31 nM.

Compound `CNc1ccc([N+](=O)[O-])cc1-n1cnc(-c2ccc(OC(F)(F)F)cc2O)c1` [Compound 21, 2-(1-(2-(methylamino)-5-nitrophenyl)-1H-imidazol-4-yl)-5-(trifluoromethoxy)phenol] has an EC50 of 24.9 ± 6.15 nM.

In the case of `CNc1ccc([N+](=O)[O-])cc1-n1cnc(-c2ccc(C(F)(F)F)cc2OCC(N)=O)c1` [Compound 42, (2-(1-(2-(methylamino)-5-nitrophenyl)-1H-imidazo-4-yl)-5-(trifluoromethyl)phenoxy)acetamide], the EC50 is reported as over 1000 nM.

For `Oc1cc(C(F)(F)F)ccc1-c1csc(-c2cccc(C(F)(F)F)c2)n1` [Compound 14, 5-(trifluoromethyl)-2-(2-(3-(trifluoromethyl)phenyl)thiazol-4-yl)phenol], the “TLR1/2 activation activity EC50” value was “NA[†]”.

Work on `CNc1ccc([N+](=O)[O-])cc1-n1cnc(-c2ccc(C(F)(F)F)cc2OCc2ccccc2)c1` [Compound 30, 2-(4-(2-(benzyloxy)-4-(trifluoromethyl)phenyl)-1H-imidazol-1-yl)-N-methyl-4-nitroaniline] yielded an EC50 of over 1000 nM.

With `CNc1c(Cl)cc([N+](=O)[O-])cc1-n1cnc(-c2ccc(C#N)cc2)c1` [Compound 27, 4-(1-(3-chloro-2-(methylamino)-5-nitrophenyl)-1H-imidazol-4-yl)benzonitrile] the EC50 was over 1000 nM.

Compound `CNc1ccc([N+](=O)[O-])cc1-n1cnc(-c2ccc(C(F)(F)F)cc2OC(C)=O)c1` [Compound 35, (1-(2-(methylamino)-5-nitrophenyl)-1H-imidazol-4-yl)-5-(trifluoromethyl)phenyl acetate] has an EC50 of 18.8 ± 3.65 nM.

Compound `CNc1ccc([N+](=O)[O-])cc1-n1cnc(-c2ccc(C(F)(F)F)cc2OC)c1` [Compound 28, 2-(4-(2-methoxy-4-(trifluoromethyl)phenyl)-1H-imidazol-1-yl)-N-methyl-4-nitroaniline] has an EC50 of 92.3 ± 12.3 nM.
